# Reference: patent US6703388B2, “Nitrogen-containing tricyclic compounds and drugs containing the same” (Eisai Co., Ltd., priority 1996, dated 2004)
# Read-outs that look alike come from different tables or passages of the source.
# Columns and labels:
# RBL-2H3 cells = test: Inhibition of serotonin liberation from IgE-sensitized RBL-2H3 cells after antigen stimulation; format: cell-based, rat; conditions: Rattus norvegicus; [3H]-serotonin release, IgE-sensitized RBL-2H3 cells, antigen stimulation; read-out: IC50 (μM) in serotonin liberation from RBL-2H3 cells
# Description: IgE-sensitized RBL-2H3 cells (i.e., a cell line originating in rat cells) release and produce not only histamine and serotonin but also cytokines such as TNF α and prostaglandins which are inflammatory mediators after stimulation with IgE sepecific antibody. In this experimental system, inhibitory effects on various mediators release were examined by using serotonin as an indication.
# The cells were beforehand labeled with [^3H]-labeled serotonin and, at the same time, sensitized with the IgE antibody. After incubating with the compounds of the present invention, the cells were stimulated with the specific antigen. Then the inhibitory activity of each compound was calculated from the amount of the [^3H]-labeled serotonin thus liberated into the medium and the amount of [^3H]-labeled serotonin liberated when no compound of the present invention was added.
# human basophils = test: Inhibition of mediator (histamine, peptide leukotriene) liberation from human basophils stimulated with mite antigen; format: cell-based; conditions: enzyme immunoassay
# Experimental: 6 ml of 6% dextran (for separating leukocytes, having a high molecular weight) was added to 20 ml of heparinized blood. After stirring well, the resulting mixture was allowed to stand at 37° C. for 30 min and thus erythrocytes were precipitated. The upper layer was taken up and phosphate buffered saline (D-PBS) was added thereto followed by centrifugation at 185 g for 8 minutes to give a crude leukocyte fraction. These cells were subjected to hypotonic hematolysis and then suspended in D-PBS(+) containing 0.1%-BSA. The resulting suspension was used in the subsequent experiment as the leukocyte fraction containing basophils. 0.4 ml of this cell suspension was preliminarily heated to 37° C. for 5 min and then 0.05 ml of a specimen solution was added thereto followed by a pretreatment at 37° C. for 15 min. Next, 0.05 ml of a mite antigen solution was added thereto to induce an antigen-antibody reaction. After 10 min, the reaction was ceased by ice-cooling. Then the reaction mixture was centrifuged at 185 g for 10 min and histamine and peptide leukotrienes in the resulting supernatant were determined by using enzyme immunoassay kits. From the results of the assay, the activities of the acridone derivatives of inhibiting the liberation of histamine and peptide leukotriene were determined.
# [1] = histamine, read-out: IC50 (μM) in mediator liberation from human basophils: histamine
# [2] = peptide leukotriene, read-out: IC50 (μM) in mediator liberation from human basophils: leukotriene
SMILES,IC50 (RBL-2H3 cells) [µM],IC50 (human basophils; [1]) [µM],IC50 (human basophils; [2]) [µM]
Cc1ccc2c(c1C)N(CCCNCc1ccc(CO)o1)c1ccccc1[S+]2[O-] (centres unmarked) [Example 65],0.5,30 to 100,10 to 30
COc1ccsc1CNCCCN1c2ccccc2[S+]([O-])c2ccc(C)c(C)c21 (centres unmarked) [Example 66],0.5,< 3,< 3
COc1ccc(CNCCCN2c3ccccc3[S+]([O-])c3ccc(C)c(C)c32)s1 (centres unmarked) [Example 67],1,10 to 30,10 to 30
Cc1ccc2c(c1C)N(CCCNCc1[nH]cnc1-c1ccccc1)c1ccccc1[S+]2[O-] (centres unmarked) [Example 69],1,10,3 to 10
COc1csc(CNCCCN2c3ccccc3[S+]([O-])c3ccc(C)c(C)c32)c1 (centres unmarked) [Example 73],2,3 to 10,3 to 10
Cc1ccc2c(c1C)N(CCCNCc1ccccc1)c1ccc(Cl)cc1[S+]2[O-] (centres unmarked) [Example 80],1,10,3 to 10
COc1ccsc1CNCCCN1c2ccc(Cl)cc2[S+]([O-])c2ccc(C)c(C)c21 (centres unmarked) [Example 81],1,10 to 30,3 to 10
Cc1ccc2c(c1C)N(CCCNCc1ccccc1)c1cccc(Cl)c1[S+]2[O-] (centres unmarked) [Example 82],2,3 to 10,10 to 30
COc1ccsc1CNCCCN1c2cccc(Cl)c2[S+]([O-])c2ccc(C)c(C)c21 (centres unmarked) [Example 83],2,10,10 to 30
Cc1ccc2c(c1C)N(CCCNCc1ccccc1)c1cc(Cl)ccc1[S+]2[O-] (centres unmarked) [Example 84],2,< 3,< 3
COc1ccsc1CNCCCN1c2cc(Cl)ccc2[S+]([O-])c2ccc(C)c(C)c21 (centres unmarked) [Example 85],3,3,10 to 30
Cc1ccc2c(c1C)N(CCCNCCc1ccccc1)c1ccc(F)cc1[S+]2[O-] (centres unmarked) [Example 86],1,10 to 30,10
COc1ccsc1CNCCCN1c2ccc(F)cc2[S+]([O-])c2ccc(C)c(C)c21 (centres unmarked) [Example 87],3,3 to 10,3 to 10
Cc1ccc2c(c1C)N(CCCNCc1ccccc1)c1cc(C#N)ccc1[S+]2[O-] (centres unmarked) [Example 90],3,30 to 100,10 to 30
Cc1cc(C)c2c(c1C)N(CCCNCc1ccccc1)c1ccccc1[S+]2[O-] (centres unmarked) [Example 100],2,3,10
Cc1ccc2c(c1C)N(CCCNC(C)c1ccccc1O)c1ccccc1[S+]2[O-] (centres unmarked) [Example 102],1,30,10 to 30
Cc1ccc2c(c1C)N(CCCN1CCc3ccccc3C1)c1ccccc1[S+]2[O-] (centres unmarked) [Example 108],2,30,10 to 30
Cc1ccc2c(c1C)N(CCCNCCOc1ccccc1)c1ccccc1[S+]2[O-] (centres unmarked) [Example 113],3,10,< 10
Cc1ccc2c(c1C)N(CCCN1CCN(Cc3ccccc3O)CC1)c1ccccc1[S+]2[O-] (centres unmarked) [Example 114],2,30 to 100,10
Cc1ccc2c(c1C)N(Cc1cccc(CN3CCN(Cc4ccccc4)CC3)n1)c1ccccc1[S+]2[O-] (centres unmarked) [Example 122],3,10 to 30,< 10
Cc1ccc2c(c1C)N(CCCN(CCN(C)C)Cc1ccccc1)c1ccccc1[S+]2[O-] (centres unmarked) [Example 125],2,< 10,< 10
Cc1ccc2c(c1C)N(CCCNC(CO)c1ccccc1)c1ccccc1[S+]2[O-] (centres unmarked) [Example 128],1,–,10 to 30
CCOC(=O)CN(CCCN1c2ccccc2[S+]([O-])c2ccc(C)c(C)c21)Cc1ccccc1O (centres unmarked) [Example 134],3,3,3
Cc1ccc2c(c1C)N(CCCN(Cc1ccccc1O)CC(O)CO)c1ccccc1[S+]2[O-] (centres unmarked) [Example 137],1,10 to 30,3
Cc1ccc2c(c1C)N(CCCCNCc1ccccc1O)c1ccccc1[S+]2[O-] (centres unmarked) [Example 140],3,10,3 to 10
Cc1ccc2c(c1C)N(CCNCc1ccccc1O)c1ccccc1[S+]2[O-] (centres unmarked) [Example 144],8,10 to 30,10 to 30

SMILES,IC50 (RBL-2H3 cells) [µM],IC50 (human basophils; [1]) [µM],IC50 (human basophils; [2]) [µM]
Cc1ccc2c(c1C)N(CCNCc1cccc(C)c1O)c1ccccc1[S+]2[O-] (centres unmarked) [Example 145],6,10 to 30,< 10
Cc1ccc2c(c1C)N(CCNCc1cc(Cl)cc(Cl)c1O)c1ccccc1[S+]2[O-] (centres unmarked) [Example 146],3,< 10,< 10
Cc1ccc2c(c1C)N(CCNCc1cccc(C(C)C)c1O)c1ccccc1[S+]2[O-] (centres unmarked) [Example 147],3,10,< 10
Cc1ccc2c(c1C)N(CCNCc1c(O)cccc1O)c1ccccc1[S+]2[O-] (centres unmarked) [Example 150],1,10 to 30,3 to 10
COCc1cccc(CNCCN2c3ccccc3[S+]([O-])c3ccc(C)c(C)c32)c1O (centres unmarked) [Example 151],2,10 to 30,3 to 10
Cc1ccc2c(c1C)N(CCNCc1cccc(CO)c1O)c1ccccc1[S+]2[O-] (centres unmarked) [Example 152],1,3 to 10,< 3
COc1cccc(CNCCN2c3ccccc3[S+]([O-])c3ccc(C)c(C)c32)c1O (centres unmarked) [Example 154],6,10 to 30,< 10
COc1ccccc1CNCCN1c2ccccc2[S+]([O-])c2ccc(C)c(C)c21 (centres unmarked) [Example 155],4,30 to 100,10 to 30
Cc1ccc2c(c1C)N(CCNCc1ccccc1CO)c1ccccc1[S+]2[O-] (centres unmarked) [Example 156],3,10,10
Cc1ccc2c(c1C)N(CCNCc1ccccc1OCCO)c1ccccc1[S+]2[O-] (centres unmarked) [Example 157],1,30 to 100,10 to 30
Cc1ccc2c(c1C)N(CCNCc1ncc[nH]1)c1ccccc1[S+]2[O-] (centres unmarked) [Example 162],1,30 to 100,< 10
Cc1ccc2c(c1C)N(CCNCc1cccc(C(F)(F)F)c1O)c1ccccc1[S+]2[O-] (centres unmarked) [Example 163],3,10 to 30,10
Cc1ccc2c(c1C)N(CCCN(C)Cc1ccc(O)cc1)c1ccccc1[S+]2[O-] (centres unmarked) [Example 165],0.3,10 to 30,3 to 10
Cc1ccc2c(c1C)N(CCCN(C)Cc1cccc(O)c1)c1ccccc1[S+]2[O-] (centres unmarked) [Example 166],0.5,10 to 30,3 to 10
Cc1ccc2c(c1C)N(CCCN(C)Cc1cccc(C)c1O)c1ccccc1[S+]2[O-] (centres unmarked) [Example 168],2,< 10,< 10
COc1cccc(CN(C)CCCN2c3ccccc3[S+]([O-])c3ccc(C)c(C)c32)c1O (centres unmarked) [Example 169],0.5,30 to 100,10 to 30
COc1cccc(OC)c1CN(C)CCCN1c2ccccc2[S+]([O-])c2ccc(C)c(C)c21 (centres unmarked) [Example 170],0.5,10 to 30,3
Cc1ccc2c(c1C)N(CCCN(C)Cc1cc(O)ccc1O)c1ccccc1[S+]2[O-] (centres unmarked) [Example 171],0.8,3 to 10,3 to 10
Cc1ccc2c(c1C)N(CCCN(C)Cc1ccccc1OCCO)c1ccccc1[S+]2[O-] (centres unmarked) [Example 173],0.3,30,10
Cc1ccc2c(c1C)N(CCCN(C)Cc1c(O)ccc(C)c1O)c1ccccc1[S+]2[O-] (centres unmarked) [Example 174],0.5,10 to 30,10
COc1cc(C)c(O)c(CN(C)CCCN2c3ccccc3[S+]([O-])c3ccc(C)c(C)c32)c1O (centres unmarked) [Example 175],0.8,30 to 100,10
COc1ccc(CN(C)CCCN2c3ccccc3[S+]([O-])c3ccc(C)c(C)c32)o1 (centres unmarked) [Example 176],2,30 to 100,10 to 30
Cc1ccc2c(c1C)N(CCCN(C)Cc1ccc(CO)o1)c1ccccc1[S+]2[O-] (centres unmarked) [Example 177],1,10,< 3
COc1cccc(CN(C)CCN2c3ccccc3[S+]([O-])c3ccc(C)c(C)c32)c1O (centres unmarked) [Example 180],2,30 to 100,3 to 10
Cc1ccc2c(c1C)N(CCN(C)Cc1cccc(C)c1O)c1ccccc1[S+]2[O-] (centres unmarked) [Example 181],2,10 to 30,< 10
